Tested on: hypertensive subjects
Experiment: Adverse events (TEAEs, SAEs, AESI, study drug discontinuation, dose modification);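 also: counts of spontaneously reported adverse events in the Safety Analysis Set, subjects grouped by treatment actually received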
Format: in vivo, human
Description: In analyses performed on the Safety Analysis Set, subjects will be analyzed according to their actual treatment received.

CC(=O)N[C@H]1CC[C@H](NC(=O)CN2CCN(c3nncc(-c4ccc(C)cc4)n3)CC2)CC1 [Compound A HBr]
Dose titration: Hyperkalemia, subjects n (%) (100mg QD Pooled (N 60)): 2 (3.3%)
Dose titration: Hyponatremia, subjects n (%) (100mg QD Pooled (N 60)): 1 (1.7%)
Dose titration: Other possibly related, subjects n (%) (100mg QD Pooled (N 60)): 0
Dose titration: Other unrelated, subjects n (%) (100mg QD Pooled (N 60)): 0
Study drug discontinuation: Hyperkalemia, subjects n (%) (100mg QD Pooled (N 60)): 2 (3.3%)
Study drug discontinuation: Hyponatremia, subjects n (%) (100mg QD Pooled (N 60)): 1 (1.7%)
Study drug discontinuation: Hypotension, subjects n (%) (100mg QD Pooled (N 60)): 2 (3.3%)
Study drug discontinuation: Other possibly related, subjects n (%) (100mg QD Pooled (N 60)): 1 (1.7%)
Study drug discontinuation: Other unrelated, subjects n (%) (100mg QD Pooled (N 60)): 4 (6.7%)
Subjects with TEAE resulting in dose modification (Part 1): 24
Dose titration: Hyperkalemia, subjects n (%) (Part 1 100mg QD (N 29)): 1 (3.4%)
Dose titration: Hyponatremia, subjects n (%) (Part 1 100mg QD (N 29)): 0
Dose titration: Other possibly related, subjects n (%) (Part 1 100mg QD (N 29)): 0
Dose titration: Other unrelated, subjects n (%) (Part 1 100mg QD (N 29)): 0
Study drug discontinuation: Hyperkalemia, subjects n (%) (Part 1 100mg QD (N 29)): 2 (6.9%)
Study drug discontinuation: Hyponatremia, subjects n (%) (Part 1 100mg QD (N 29)): 0
Study drug discontinuation: Hypotension, subjects n (%) (Part 1 100mg QD (N 29)): 1 (3.4%)
Study drug discontinuation: Other possibly related, subjects n (%) (Part 1 100mg QD (N 29)): 1 (3.4%)
Study drug discontinuation: Other unrelated, subjects n (%) (Part 1 100mg QD (N 29)): 3 (6.0%)
On-treatment TEAE: Blood and lymphatic system disorders (Part 1, 12.5 mg BID (N = 22)): 0 n (%)
On-treatment TEAE: Blood and lymphatic system disorders, Mild (Part 1, 12.5 mg BID (N = 22)): 0 n (%)
On-treatment TEAE: Blood creatinine increased (Part 1, 12.5 mg BID (N = 22)): 0 n (%)
On-treatment TEAE: Blood creatinine increased, Mild (Part 1, 12.5 mg BID (N = 22)): 0 n (%)
On-treatment TEAE: Cardiac disorders (Part 1, 12.5 mg BID (N = 22)): 1 (4.5) n (%)
On-treatment TEAE: Cortisol decreased (Part 1, 12.5 mg BID (N = 22)): 2 (9.1) n (%)
On-treatment TEAE: Cortisol decreased, Mild (Part 1, 12.5 mg BID (N = 22)): 2 (9.1) n (%)
On-treatment TEAE: Dizziness (Part 1, 12.5 mg BID (N = 22)): 0 n (%)
On-treatment TEAE: Gastrointestinal disorders (Part 1, 12.5 mg BID (N = 22)): 0 n (%)
On-treatment TEAE: Gastrointestinal disorders, Mild (Part 1, 12.5 mg BID (N = 22)): 0 n (%)
On-treatment TEAE: General disorders and administration site conditions (Part 1, 12.5 mg BID (N = 22)): 2 (9.1) n (%)
On-treatment TEAE: General disorders and administration site conditions, Mild (Part 1, 12.5 mg BID (N = 22)): 1 (4.5) n (%)
On-treatment TEAE: Glomerular filtration rate decreased (Part 1, 12.5 mg BID (N = 22)): 3 (13.6) n (%)
On-treatment TEAE: Glomerular filtration rate decreased, Mild (Part 1, 12.5 mg BID (N = 22)): 3 (13.6) n (%)
On-treatment TEAE: Headache (Part 1, 12.5 mg BID (N = 22)): 0 n (%)
On-treatment TEAE: Headache, Mild (Part 1, 12.5 mg BID (N = 22)): 0 n (%)
On-treatment TEAE: Hyperkalaemia (Part 1, 12.5 mg BID (N = 22)): 5 (22.7) n (%)
On-treatment TEAE: Hyperkalaemia, Mild (Part 1, 12.5 mg BID (N = 22)): 4 (18.2) n (%)
On-treatment TEAE: Hyperkalaemia, Moderate (Part 1, 12.5 mg BID (N = 22)): 1 (4.5) n (%)
On-treatment TEAE: Hyperkalaemia, Severe (Part 1, 12.5 mg BID (N = 22)): 0 n (%)
On-treatment TEAE: Hypertension (Part 1, 12.5 mg BID (N = 22)): 0 n (%)
On-treatment TEAE: Hypertension, Moderate (Part 1, 12.5 mg BID (N = 22)): 0 n (%)
On-treatment TEAE: Infections and infestations (Part 1, 12.5 mg BID (N = 22)): 1 (4.5) n (%)
On-treatment TEAE: Infections and infestations, Mild (Part 1, 12.5 mg BID (N = 22)): 0 n (%)
On-treatment TEAE: Infections and infestations, Moderate (Part 1, 12.5 mg BID (N = 22)): 1 (4.5) n (%)
On-treatment TEAE: Investigations (Part 1, 12.5 mg BID (N = 22)): 6 (27.3) n (%)
On-treatment TEAE: Investigations, Mild (Part 1, 12.5 mg BID (N = 22)): 5 (22.7) n (%)
On-treatment TEAE: Investigations, Moderate (Part 1, 12.5 mg BID (N = 22)): 1 (4.5) n (%)
On-treatment TEAE: Metabolism and nutrition disorders (Part 1, 12.5 mg BID (N = 22)): 5 (22.7) n (%)
On-treatment TEAE: Metabolism and nutrition disorders, Mild (Part 1, 12.5 mg BID (N = 22)): 4 (18.2) n (%)
On-treatment TEAE: Metabolism and nutrition disorders, Moderate (Part 1, 12.5 mg BID (N = 22)): 1 (4.5) n (%)
On-treatment TEAE: Nervous system disorders (Part 1, 12.5 mg BID (N = 22)): 1 (4.5) n (%)
On-treatment TEAE: Nervous system disorders, Mild (Part 1, 12.5 mg BID (N = 22)): 1 (4.5) n (%)
On-treatment TEAE: Orthostatic hypotension (Part 1, 12.5 mg BID (N = 22)): 1 (4.5) n (%)
On-treatment TEAE: Orthostatic hypotension, Mild (Part 1, 12.5 mg BID (N = 22)): 1 (4.5) n (%)
On-treatment TEAE: Psychiatric disorders (Part 1, 12.5 mg BID (N = 22)): 1 (4.5) n (%)
On-treatment TEAE: Psychiatric disorders, Moderate (Part 1, 12.5 mg BID (N = 22)): 1 (4.5) n (%)
On-treatment TEAE: Urinary tract infection (Part 1, 12.5 mg BID (N = 22)): 0 n (%)
On-treatment TEAE: Urinary tract infection, Mild (Part 1, 12.5 mg BID (N = 22)): 0 n (%)
On-treatment TEAE: Vascular disorders (Part 1, 12.5 mg BID (N = 22)): 2 (9.1) n (%)
On-treatment TEAE: Vascular disorders, Mild (Part 1, 12.5 mg BID (N = 22)): 2 (9.1) n (%)
On-treatment TEAE: Vascular disorders, Moderate (Part 1, 12.5 mg BID (N = 22)): 0 n (%)
On-treatment TEAE: any, Mild (Part 1, 12.5 mg BID (N = 22)): 8 (36.4) n (%)
On-treatment TEAE: any, Moderate (Part 1, 12.5 mg BID (N = 22)): 5 (22.7) n (%)
On-treatment TEAE: any, Severe (Part 1, 12.5 mg BID (N = 22)): 0 n (%)
Subjects with any On-treatment TEAEs leading to withdrawal from study drug (Part 1, 12.5 mg BID (N = 22)): 1 (4.5) n (%)
TEAE leading to permanent discontinuation from study drug: Activated partial thromboplastin time prolonged (Part 1, 12.5 mg BID (N = 22)): 0 n (%)
TEAE leading to permanent discontinuation from study drug: Cardiac disorders (Part 1, 12.5 mg BID (N = 22)): 0 n (%)
TEAE leading to permanent discontinuation from study drug: Coronary artery disease (Part 1, 12.5 mg BID (N = 22)): 0 n (%)
TEAE leading to permanent discontinuation from study drug: Dizziness (Part 1, 12.5 mg BID (N = 22)): 0 n (%)
TEAE leading to permanent discontinuation from study drug: Hyperkalaemia (Part 1, 12.5 mg BID (N = 22)): 0 n (%)
TEAE leading to permanent discontinuation from study drug: Hypertension (Part 1, 12.5 mg BID (N = 22)): 0 n (%)
TEAE leading to permanent discontinuation from study drug: Hypotension (Part 1, 12.5 mg BID (N = 22)): 0 n (%)
TEAE leading to permanent discontinuation from study drug: Investigations (Part 1, 12.5 mg BID (N = 22)): 0 n (%)
TEAE leading to permanent discontinuation from study drug: Metabolism and nutrition disorders (Part 1, 12.5 mg BID (N = 22)): 0 n (%)
TEAE leading to permanent discontinuation from study drug: Nervous system disorders (Part 1, 12.5 mg BID (N = 22)): 0 n (%)
TEAE leading to permanent discontinuation from study drug: Orthostatic hypotension (Part 1, 12.5 mg BID (N = 22)): 1 (4.5) n (%)
TEAE leading to permanent discontinuation from study drug: Vascular disorders (Part 1, 12.5 mg BID (N = 22)): 1 (4.5) n (%)
On-treatment TEAE: Blood and lymphatic system disorders (Part 1, 12.5 mg QD (N = 23)): 0 n (%)
On-treatment TEAE: Blood and lymphatic system disorders, Mild (Part 1, 12.5 mg QD (N = 23)): 0 n (%)
On-treatment TEAE: Blood creatinine increased (Part 1, 12.5 mg QD (N = 23)): 0 n (%)
On-treatment TEAE: Blood creatinine increased, Mild (Part 1, 12.5 mg QD (N = 23)): 0 n (%)
On-treatment TEAE: Cardiac disorders (Part 1, 12.5 mg QD (N = 23)): 2 (8.7) n (%)
On-treatment TEAE: Cortisol decreased (Part 1, 12.5 mg QD (N = 23)): 0 n (%)
On-treatment TEAE: Cortisol decreased, Mild (Part 1, 12.5 mg QD (N = 23)): 0 n (%)
On-treatment TEAE: Dizziness (Part 1, 12.5 mg QD (N = 23)): 1 (4.3) n (%)
On-treatment TEAE: Gastrointestinal disorders (Part 1, 12.5 mg QD (N = 23)): 2 (8.7) n (%)
On-treatment TEAE: Gastrointestinal disorders, Mild (Part 1, 12.5 mg QD (N = 23)): 1 (4.3) n (%)
On-treatment TEAE: General disorders and administration site conditions (Part 1, 12.5 mg QD (N = 23)): 1 (4.3) n (%)
On-treatment TEAE: General disorders and administration site conditions, Mild (Part 1, 12.5 mg QD (N = 23)): 0 n (%)
On-treatment TEAE: Glomerular filtration rate decreased (Part 1, 12.5 mg QD (N = 23)): 1 (4.3) n (%)
On-treatment TEAE: Glomerular filtration rate decreased, Mild (Part 1, 12.5 mg QD (N = 23)): 1 (4.3) n (%)
On-treatment TEAE: Headache (Part 1, 12.5 mg QD (N = 23)): 0 n (%)
On-treatment TEAE: Headache, Mild (Part 1, 12.5 mg QD (N = 23)): 0 n (%)
On-treatment TEAE: Hyperkalaemia (Part 1, 12.5 mg QD (N = 23)): 6 (26.1) n (%)
On-treatment TEAE: Hyperkalaemia, Mild (Part 1, 12.5 mg QD (N = 23)): 4 (17.4) n (%)
On-treatment TEAE: Hyperkalaemia, Moderate (Part 1, 12.5 mg QD (N = 23)): 1 (4.3) n (%)
On-treatment TEAE: Hyperkalaemia, Severe (Part 1, 12.5 mg QD (N = 23)): 1 (4.3) n (%)
On-treatment TEAE: Hypertension (Part 1, 12.5 mg QD (N = 23)): 2 (8.7) n (%)
On-treatment TEAE: Hypertension, Moderate (Part 1, 12.5 mg QD (N = 23)): 1 (4.3) n (%)
On-treatment TEAE: Infections and infestations (Part 1, 12.5 mg QD (N = 23)): 3 (13.0) n (%)
On-treatment TEAE: Infections and infestations, Mild (Part 1, 12.5 mg QD (N = 23)): 3 (13.0) n (%)

Reference: patent US20260053811A1, “METHODS OF TREATING HYPERTENSION IN OBESE SUBJECTS” (Mineralys Therapeutics, Inc., priority 2022, published 2026)
